{"source": "patent US12194153B2", "about": "“Amorphous dispersion of 4-methyl-3-quinolin-3-ylethynyl-benzoic acid n′-(2-chloro-6-methyl-benzoyl) hydrazide” (SUN PHARMA ADVANCED RESEARCH COMPANY LIMITED, priority 2017, dated 2025)", "assay": "Oral bioavailability study in dogs (plasma levels of compound of formula I)", "assay_type": "in vivo", "conditions": "dog; oral administration to dogs; plasma level of compound of formula I", "protocol": "Suitable amount of amorphous dispersion of Example I and the crystalline form of compound of formula I suspended in a vehicle were administered orally to dogs.\nBlood samples were withdrawn at various time intervals and the plasma levels of compound of formula I were recorded. The Cmax, AUC0 to t and AUC0-∞, in plasma are tabulated below.", "data": [{"smiles": "Cc1ccc(C(=O)NNC(=O)c2c(C)cccc2Cl)cc1C#Cc1cnc2ccccc2c1", "note": "[Compound of formula I in a vehicle, 4-Methyl-3-quinolin-3-ylethynyl-benzoic acid N′-(2-chloro-6-methyl-benzoyl)hydrazide]", "values": [{"measurement": "AUC(0-inf)", "result": 1190, "unit": "ng·h/mL"}, {"measurement": "AUC(0-t)", "result": 1070, "unit": "ng·h/mL"}, {"measurement": "Cmax", "result": 282, "unit": "ng/mL"}]}]}
